According to article PMC8587544, “Identification of Novel Antagonists Targeting Cannabinoid Receptor 2 Using a Multi-Step Virtual Screening Strategy” (Molecules, 2021):
Like-named read-outs stand apart in the source and are kept apart here.

Assays:
[1] = biological target: T1, human CB2 receptor (Homo sapiens, UniProt P34972); test: Radioligand binding assays at human CB2 receptor ([3H]-CP55940); conditions: [3H]-CP55940 0.8 nM, 90 min, 30 °C, read-out: Binding Affinities pKi (converted)
Experimental: The 15 compounds were purchased from J&K Scientific Ltd. (Shanghai, China). The radioligand binding assays and functional assays to CB2 receptor were performed by Pharmaron (Beijing) upon commission. In the CB2 receptor assays, [^3H]-CP55940 was used as the radioligand; the 15 compounds were tested in radioligand binding assays at human CB2 receptor ([^3H]-CP55940). The competition binding experiments of the test compounds at ten different concentrations and [^3H]-CP55940 (0.8 nM) against CB2 receptor (2 μg/well) were performed for 90 min at 30 °C in 500 μL of assay buffer (25 mM HEPES, 10 mM MgCl2, 1 mM CaCl2, 0.5% BSA, pH 7.4).

[2] = biological target: T1, human CB2 receptor; test: cAMP functional assay in Flpin-CHO-CB2 cells (antagonism of CP55940-mediated decrease in cAMP); type: cell-based
Experimental: Compounds 1, 3, 6, 7, 8, 12, and 15 were further evaluated by cAMP functional assays.
The CB2 receptor antagonistic activities of the 7 compounds were evaluated by investigating CB2-mediated cAMP production in Flpin-CHO-K1 cells functional assay. The Flpin-CHO-K1 cells that are engineered to stably express human CB2 receptor (the Flpin-CHO-CB2 cells) were cultured in the growth medium (Ham’s F12K + 10%FBS + 1×Ps + 800 ug/mL HB) at 37 °C and 5% CO2. The cells were then collected by centrifugation and resuspended in Hank’s balanced salt solution (HBSS), 0.1% bovine serum albumin (BSA), 20 mM N-(2-hydroxyethyl)-piperazine-N0-ethanesulfonic acid (HEPES), and 500 μM 3-isobutyl-1-methylxanthine (IBMX). The test compounds were serially diluted in DMSO at 2-fold dilutions of 10 concentrations ranging from 10,000 μM to 20 μM. The antagonistic activities were evaluated by assessing their ability to counteract the agonist (CP55940)-mediated decrease in cAMP accumulation. The accumulation of cAMP was determined by following the manufacturer’s instructions for a Perkin Elmer cAMP kit.

[3] = biological target: T2, human CB1 receptor (Homo sapiens, UniProt P21554); test: Radioligand binding assays at human CB1 receptor; conditions: read-out: Binding affinities pKi (converted)
Experimental: (§1) The binding and functional selectivity of the five compounds were tested by performing radioligand binding assays and cAMP functional assays against the CB1 receptor.

[4] = biological target: T2, human CB1 receptor; test: cAMP functional assay against CB1 receptor; type: cell-based
Experimental: as §1

[5] = biological target: CB2 receptor; conditions: cited from earlier work; for Ki: pharmacophore training set, ChEMBL27 database; for pKi: CB2 receptor
[6] = human CB2 receptor, Flpin-CHO-CB2 cells, antagonism of CP55940, read-out: cAMP Assay pIC50 (converted)
[7] = CB1 receptor, cAMP functional assay, read-out: antagonistic activities against the CB1 receptor
[8] = human CB1 receptor, read-out: cAMP assay pIC50 (converted)

T1 sequence (P34972 whole entry): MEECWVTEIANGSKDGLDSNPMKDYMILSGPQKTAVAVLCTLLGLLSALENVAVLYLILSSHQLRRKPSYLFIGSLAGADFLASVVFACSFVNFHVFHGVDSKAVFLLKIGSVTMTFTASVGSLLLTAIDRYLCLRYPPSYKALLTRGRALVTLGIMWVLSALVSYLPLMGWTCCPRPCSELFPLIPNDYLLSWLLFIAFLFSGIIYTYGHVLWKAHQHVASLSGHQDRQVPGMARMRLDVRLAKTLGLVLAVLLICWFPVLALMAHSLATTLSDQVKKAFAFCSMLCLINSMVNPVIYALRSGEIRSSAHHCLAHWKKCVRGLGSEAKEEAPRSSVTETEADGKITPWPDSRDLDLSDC
T2 sequence (P21554 whole entry): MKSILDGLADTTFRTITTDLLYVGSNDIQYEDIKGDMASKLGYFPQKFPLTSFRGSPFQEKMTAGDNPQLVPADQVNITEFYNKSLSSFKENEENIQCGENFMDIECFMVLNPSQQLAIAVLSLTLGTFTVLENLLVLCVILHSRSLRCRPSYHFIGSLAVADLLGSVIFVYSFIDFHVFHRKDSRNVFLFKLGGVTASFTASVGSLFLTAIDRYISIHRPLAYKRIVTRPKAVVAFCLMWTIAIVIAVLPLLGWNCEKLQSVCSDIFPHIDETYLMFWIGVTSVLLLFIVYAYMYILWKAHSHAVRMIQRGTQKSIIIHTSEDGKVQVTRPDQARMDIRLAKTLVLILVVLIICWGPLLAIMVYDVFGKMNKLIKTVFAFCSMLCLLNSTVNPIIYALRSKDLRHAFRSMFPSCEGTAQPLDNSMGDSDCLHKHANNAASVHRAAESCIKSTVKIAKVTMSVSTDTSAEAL

## Cc1cc(S(=O)(=O)c2cc3cc(C(C)(C)C)cc(O)c3oc2=O)ccc1F [Compound 9]
[1]
  Ki: 23.4 µM

## COc1ccccc1Nc1sc(C(=O)c2ccccc2)c(N)c1S(=O)(=O)c1ccccc1 [Compound 3]
[1]
  Ki: 4.9 µM
[2]; [6]
  IC50: 0.339 µM
[3]
  Ki: 18.6 µM
[4]; [7]
  IC50: > 20 µM

## COc1ccc(-n2c(=O)c3c4c(sc3n(Cc3ccc(F)cc3)c2=O)CN(C(C)=O)CC4)cc1 [Compound 6]
[1]
  Ki: 7.08 µM
[2]; [6]
  IC50: > 20 µM

## CSC(=S)N1CC2(CCCCC2)CS/C1=N\c1cccc(C(C)C)c1 [CHEMBL231719]
[5]
  Ki: 2.5 nM

## CC(=O)Nc1c2n(c3ccc(F)cc13)CC(C)(C(=O)NC1CCCC1)N(Cc1ccc(F)cc1)C2=O (stereo not shown) [Compound 13]
[1]
  Ki: 33.1 µM

## C[C@@H](NS(=O)(=O)C(F)(F)F)c1ccc(S(=O)(=O)c2ccoc2S(=O)(=O)c2ccccc2F)cc1 [CHEMBL1270480]
[5]
  Ki: 4.4 nM

## SR144528
[5]
  pKi: 8.3–9.2

## NC(=O)c1nc(Nc2ccccc2)sc1NC(=O)C12CC3CC(CC(C3)C1)C2 [Compound 1]
[1]
  Ki: 1.58 µM
[2]; [6]
  IC50: > 20 µM

## CC(=O)N1CCc2c(sc3c2c(=O)n(Cc2ccccc2)c(=O)n3Cc2c(F)cccc2Cl)C1 [Compound 7]
[1]
  Ki: 6.61 µM
[2]; [6]
  IC50: 3.47 µM
[3]
  Ki: 16.6 µM
[4]; [8]
  IC50: 7.08 µM

## COCCn1c(C)c(C)sc1=NC(=O)C1C(C)(C)C1(C)C [CHEMBL1668519]
[5]
  Ki: 0.64 nM

## Cc1ccc(C)c(CNC(=O)c2cc(-c3cccs3)nn2Cc2ccc(F)cc2)c1 [Compound 14]
[1]
  Ki: 17.8 µM

## O=c1c2nccnc2nc(SCc2cccc(F)c2)n1Cc1cccs1 [Compound 12]
[1]
  Ki: 3.55 µM
[2]; [6]
  IC50: 5.62 µM
[3]
  Ki: 38 µM
[4]; [7]
  IC50: > 20 µM

## CN(C(=O)c1nn(C)c2c1COc1ccccc1-2)c1cccc(C(F)(F)F)c1 [Compound 11]
[1]
  Ki: 13.8 µM

## O=C(CSc1nc2nccnc2c(=O)n1Cc1ccc2c(c1)OCO2)Nc1ccc(F)cc1 [Compound 5]
[1]
  Ki: 38 µM

## COc1ccc(C(=O)c2c(C)n(CCN3CCOCC3)c3cc(I)ccc23)cc1 [AM630]
[5]
  pKi: 7.5

## O=C(Cn1c(=O)n(Cc2ccccc2)c(=O)c2sc3ccccc3c21)NC1CCCCC1 [Compound 4]
[1]
  Ki: > 100 µM

## CCCCCn1cc(C(=O)NC23CC4CC(CC(C4)C2)C3)c(=O)c2cc(-c3ccc(O)cc3)ccc21 [CHEMBL1215918]
[5]
  Ki: 4.2 nM

## COc1cc(C2CC(=O)Nc3c2c(=O)n(C)c(=O)n3C)ccc1OCc1cccc(F)c1 (stereo not shown) [Compound 2]
[1]
  Ki: > 100 µM

## O=C(NC1CCCCCC1)c1cc(-c2cccs2)nn1Cc1ccc(F)cc1 [Compound 15]
[1]
  Ki: 1.74 µM
[2]
  IC50: 2.82 µM
[3]
  Ki: 25.7 µM
[4]; cAMP assay pIC50, human CB1 receptor
  IC50: 4.57 µM

## Cc1cccn2c(=O)c(/C=C3\SC(=S)N(Cc4ccco4)C3=O)c(NCC3CCCO3)nc12 (stereo not shown) [Compound 8]
[1]
  Ki: 0.219 µM
[2]; cAMP functional assays, CB2 over CB1
  antagonistic activity towards the CB2 receptor in comparison to the CB1 receptor (selectivity): more than 100 times
[2]; [6]
  IC50: 0.117 µM
[3]
  Ki: 3.39 µM
[4]; [7]
  IC50: > 20 µM
[4]; [8]
  IC50: > 20 µM

## COc1cc(C(O)c2cccs2)cc(OC)c1-c1cc(Cl)cc(Cl)c1 (stereo not shown) [CHEMBL1076685]
[5]
  Ki: 0.2 nM

## CCCCCCC1(c2cc(O)c3c(c2)OC(C)(C)[C@@H]2CC=C(C)C[C@@H]32)CCCC1 [CHEMBL108868]
[5]
  Ki: 1.91 nM

## CCCCNC(=O)Cn1c(=O)n(-c2cccc(C(F)(F)F)c2)c(=O)c2sccc21 [Compound 10]
[1]
  Ki: 17.8 µM

## CCOC(=O)c1c(NC(=O)C23CC4CC(CC(C4)C2)C3)sc2c1CCCC2 [CHEMBL3909238]
[5]
  Ki: 2.15 nM
